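Cultured in 96-well plates, cells were exposed to test compound for 48 hours across five concentrations. Here, GI50 denotes the concentration required for 50% inhibition of growth. The concentration for full growth arrest is given as TGI.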 Some results are limits rather than exact numbers.

Common to all, as to assay: NCI tumour cell line growth inhibition, 48 h
Test [1] has as its system ACHN renal.
Test [2] has as its system COLO 205 colon.
Test [3] relates to HCT-15 colon.
The test system of test [4] is M14 melanoma.
Test [5] concerns MALME-3M melanoma.
Test [6] deals with MOLT-4 leukemia.
In test [7] the test system is RPMI-8226 leukemia.
The subject of test [8] is SW-620 colon.
In test [9] the test system is T-47D breast.
The subject of test [10] is U251 CNS.

Turning to `NS(=O)(=O)c1ccc(N=Nc2c(=O)[nH]c3ccc4[nH]cccc4c23)cc1`, the GI50 in [1] was 0.694 µM; in test [2] it was 0.376 µM; in [3] it was 2.12 µM; in test [4] it was 0.82 µM; in [5], 1.05 µM; in [6], 0.632 µM. For the same compound, the GI50 was 1.97 µM in test [7], 0.356 µM in test [8], 0.48 µM in test [9] and 0.313 µM in test [10]. Further, the TGI in [1] is over 25 µM; in [2] it was 0.913 µM; in test [3], over 25 µM; in test [4], 5.64 µM; in test [5], 3.05 µM; in test [6] it was 3.31 µM. For the same compound, the TGI in [7] is 14.2 µM; in test [8], over 7.23 µM; in [9] it was 1.98 µM; in [10], over 25 µM.

`COc1cc[nH]c1/C=C1\C(=O)Nc2ccc([N+](=O)[O-])c(N3CC[C@@H](O)C3)c21`: the GI50 in test [1] was 0.0804 µM; in test [2] it was 0.135 µM; in [3] it was 0.123 µM; in test [4], 0.399 µM; in test [5] it was 0.921 µM; in test [6], 0.142 µM. Besides, the GI50 is 0.296 µM in [7], 0.205 µM in test [8], 0.541 µM in test [9] and 0.172 µM in [10]. The TGI turned out to be 2 µM in test [1]; 0.688 µM in test [2]; 2.92 µM in [3]; 1.13 µM in test [4]; 1.97 µM in test [5]; 2.4 µM in test [6]. Also, the TGI in test [7] stood at 1.14 µM; in test [8], 9.49 µM; in [9], 3.8 µM; in [10], 2.07 µM.

As for `O=C(CN1CCN(c2ccccn2)CC1)Nc1ccc(Cl)cc1C(=O)c1ccccc1Cl`, the GI50 in [1] is 56.1 µM; in [2] it was over 100 µM; in test [3], 7.85 µM; in test [4], 50.9 µM; in [5], over 100 µM; in test [6] it was 5.49 µM. The GI50 in [7] was 4.64 µM; in test [8] it was over 100 µM; in test [9] it was 3.89 µM; in test [10], over 100 µM. The TGI in test [1], in [2], in [3], in test [4], in [5] and in test [6] was over 100 µM each time. Further, the TGI in test [7], in test [8], in [9] and in test [10] was over 100 µM each time.

For the compound `NC(N)=NC(N)=NCc1ccco1`, the GI50 in [1] is over 1250 µM; in test [2], over 1250 µM; in test [3], over 1250 µM; in test [4], over 1250 µM; in [5], 741 µM; in test [6] it was over 1250 µM. For the same compound, the GI50 in [7] was 818 µM; in test [8], over 1250 µM; in test [9], over 1250 µM; in [10], 516 µM. Also, the TGI in test [1], in test [2], in test [3], in test [4], in [5] and in test [6] was over 1250 µM each time. The TGI in test [8], in [9] and in test [10] was over 1250 µM throughout.

For `CC(=O)N1c2ccc(-c3ccc(C(=O)O)cc3)cc2[C@H](Nc2ccc(Cl)cc2)C[C@@H]1C`, the GI50 in test [1] is 0.41 µM; in test [2], 0.0615 µM; in [3], 0.0613 µM; in [4], 0.096 µM; in [5], 0.168 µM; in test [6], 1.79 µM. The GI50 is 0.0615 µM in test [7], 11.1 µM in test [8], 0.108 µM in test [9] and 1.55 µM in test [10]. Moreover, the TGI in test [1] was 21.9 µM; in test [2], 12.8 µM; in test [3], 13.5 µM; in test [4] it was 23.2 µM; in test [5], 3.64 µM; in test [6] it was 39.2 µM. In addition, the TGI was 18.6 µM in [7], over 62 µM in test [8], 31 µM in [9] and 32.9 µM in test [10].

Take `CNCC1CCn2c(c(C3=C(c4cn(C)c5ccccc45)C(=O)NC3=O)c3ccccc32)C1` (centres undefined): the GI50 is 3.62 µM in [1]; 1.47 µM in test [2]; 5.04 µM in [3]; 3.05 µM in [4]; 2.13 µM in test [5]; 1.87 µM in test [6]. The GI50 in test [7] is 3.85 µM; in test [8], 2.04 µM; in test [9] it was 3.27 µM; in [10] it was 2.64 µM. Moreover, the TGI in test [1] came to 13.1 µM; in test [2], 4.77 µM; in test [3], 16.5 µM; in test [4], 6.78 µM; in [5], 5.52 µM; in [6], 8.74 µM. Also, the TGI in [7] was 9.86 µM; in [8] it was 5.6 µM; in test [9], 7.27 µM; in [10], 5.91 µM.

`O=C(N/N=C/c1cccc(O)c1)c1ccc(C(F)(F)F)nc1Nc1cccc(C(F)(F)F)c1`: the GI50 in test [1] is 2.09 µM; in [2] it was 1.44 µM; in [3] it was 0.881 µM; in [4], 1.89 µM; in [5] it was 1.36 µM; in test [6], 0.43 µM. Also, the GI50 in test [7] was 1.32 µM; in test [8], 1.63 µM; in [9] it was 1.54 µM; in [10], 1.74 µM. For the same compound, the TGI in test [1] is 6.35 µM; in test [2], 2.94 µM; in test [3], 10.1 µM; in test [4], 5.02 µM; in [5], 3.83 µM; in test [6], 2.09 µM. Further, the TGI came to 3.99 µM in [7], 5.77 µM in test [8], 7.08 µM in [9] and 6.65 µM in test [10].
